In ChEMBL document CHEMBL5055667, “Development of Novel VEGFR2 Inhibitors Originating from Natural Product Analogues with Antiangiogenic Impact” (J Med Chem, 2021):
The source made the active and inactive calls. The calls are words filed in the database; no cut-off is given here.

Assays:
U-87 MG [1] = test: Antiangiogenic activity against human U-87MG cells xenografted in mouse assessed as reduction in vascular density at 10 mg/kg, ip treated every other day for 20 days by H& E staining analysis relative to control; assay type: functional, U-87MG ATCC; details: 480 h, time 20 day
Mus musculus = test: Toxicity in mouse assessed as change in body weight at 10 mg/kg, ip treated every other day for 20 days; assay type: organism-based; details: in vivo, 480 h, time 20 day
U-87 MG [2] = test: Antiangiogenic activity against human U-87MG cells xenografted in mouse assessed as reduction in HIF1alpha expression at 10 mg/kg, ip treated every other day for 20 days by fluorescence microscopy; assay type: functional, organism-based; details: U-87MG ATCC, time 20.0 day
HUVEC [3] = test: Antiproliferative activity against HUVEC cells incubated for 72 hrs under VEGF treatment by MTT assay; assay type: functional, cell-based; details: Homo sapiens
U-87 MG [4] = test: Antiangiogenic activity against human U-87MG cells xenografted in mouse assessed as reduction in Bcl-xl expression at 10 mg/kg, ip treated every other day for 20 days by Western blotting analysis; assay type: functional, U-87MG ATCC; details: 480 h, time 20 day
U-87 MG [5] = test: Antiproliferative activity against human U87MG cells incubated for 72 hrs under VEGF treatment by MTT assay; assay type: functional, cell-based; details: U-87MG ATCC
U-87 MG [6] = test: Antiangiogenic activity against human U-87MG cells xenografted in mouse assessed as reduction in CD31 expression at 10 mg/kg, ip treated every other day for 20 days by Western blotting analysis; assay type: functional, U-87MG ATCC; details: 480 h, time 20 day
U-87 MG [7] = test: Antiangiogenic activity against human U-87MG cells xenografted in mouse assessed as reduction in pVEGFR2 expression at 10 mg/kg, ip treated every other day for 20 days by Western blotting analysis; assay type: functional, U-87MG ATCC; details: 480 h, time 20 day
U-87 MG [8] = test: Antitumor activity against human U-87MG cells xenografted in mouse assessed as reduction in tumor size at 10 mg/kg, ip treated every other day for 20 days; assay type: functional, organism-based; details: U-87MG ATCC, time 20.0 day
U-87 MG [9] = test: Antiproliferative activity against human U-87MG cells incubated for 72 hrs under serum treatment by MTT assay; assay type: functional, cell-based; details: U-87MG ATCC
U-87 MG [10] = test: Antitumor activity against human U-87MG cells xenografted in mouse assessed as reduction in tumor weight at 10 mg/kg, ip treated every other day for 20 days; assay type: functional, organism-based; details: U-87MG ATCC, time 20.0 day
HUVEC [11] = test: Antiproliferative activity against HUVEC cells incubated for 72 hrs under serum treatment by MTT assay; assay type: functional, cell-based; details: Homo sapiens
[12] = target: Vascular endothelial growth factor receptor 2 (Homo sapiens, UniProt P35968); test: Inhibition of VEGFR2 phosphorylation in VEGF-induced HUVEC cells pretreated measured after overnight incubation by immunoblotting analysis; assay type: cell-based
Chain of Vascular endothelial growth factor receptor 2 (P35968 whole entry): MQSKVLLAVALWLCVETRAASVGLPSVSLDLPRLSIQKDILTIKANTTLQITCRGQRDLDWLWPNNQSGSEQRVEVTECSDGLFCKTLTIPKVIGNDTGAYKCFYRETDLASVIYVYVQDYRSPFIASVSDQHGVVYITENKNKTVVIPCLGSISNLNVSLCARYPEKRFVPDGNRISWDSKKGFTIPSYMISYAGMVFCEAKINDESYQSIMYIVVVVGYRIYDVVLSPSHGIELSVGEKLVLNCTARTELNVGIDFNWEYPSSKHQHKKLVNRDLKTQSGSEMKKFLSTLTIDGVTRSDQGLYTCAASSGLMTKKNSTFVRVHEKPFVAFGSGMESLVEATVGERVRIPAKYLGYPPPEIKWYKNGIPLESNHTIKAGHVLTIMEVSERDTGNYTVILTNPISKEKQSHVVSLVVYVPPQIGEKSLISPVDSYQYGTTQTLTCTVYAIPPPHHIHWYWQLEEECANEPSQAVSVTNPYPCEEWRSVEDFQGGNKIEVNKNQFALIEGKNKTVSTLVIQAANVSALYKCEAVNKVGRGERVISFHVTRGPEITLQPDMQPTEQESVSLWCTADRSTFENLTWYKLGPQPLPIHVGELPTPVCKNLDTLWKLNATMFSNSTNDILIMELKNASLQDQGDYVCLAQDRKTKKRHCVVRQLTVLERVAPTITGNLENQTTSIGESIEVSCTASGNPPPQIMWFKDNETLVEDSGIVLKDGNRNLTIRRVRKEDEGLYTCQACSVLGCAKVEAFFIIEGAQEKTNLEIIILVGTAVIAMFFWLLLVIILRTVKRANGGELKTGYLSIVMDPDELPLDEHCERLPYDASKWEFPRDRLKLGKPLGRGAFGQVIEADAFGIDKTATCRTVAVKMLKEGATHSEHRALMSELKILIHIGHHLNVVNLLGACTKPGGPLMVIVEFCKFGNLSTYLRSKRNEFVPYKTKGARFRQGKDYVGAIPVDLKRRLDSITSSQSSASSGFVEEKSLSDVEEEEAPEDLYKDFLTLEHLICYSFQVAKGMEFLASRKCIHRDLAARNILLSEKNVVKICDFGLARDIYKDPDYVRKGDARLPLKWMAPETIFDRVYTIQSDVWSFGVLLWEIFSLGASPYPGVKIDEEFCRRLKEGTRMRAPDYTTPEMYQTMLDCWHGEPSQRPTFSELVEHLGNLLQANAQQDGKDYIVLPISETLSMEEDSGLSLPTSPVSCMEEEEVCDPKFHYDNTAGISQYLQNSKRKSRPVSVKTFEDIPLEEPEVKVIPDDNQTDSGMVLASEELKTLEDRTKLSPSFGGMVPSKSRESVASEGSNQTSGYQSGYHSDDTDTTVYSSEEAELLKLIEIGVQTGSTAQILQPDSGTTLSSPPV

SMILES: COc1ccc2[nH]c3c(c2c1)CN(C(=O)Cc1ccccn1)CCC3
- inhibition in vivo at 10 mg/kg (U-87 MG [1]): 73%
- Activity (Mus musculus): Non-Toxic
- Activity (U-87 MG [2]): Active
- Activity (HUVEC [3]): Active
- inhibition in vivo at 10 mg/kg (U-87 MG [4]): 20%
- Activity (U-87 MG [5]): Active
- inhibition in vivo at 10 mg/kg (U-87 MG [6]): 60%
- inhibition in vivo at 10 mg/kg (U-87 MG [7]): 60%
- Activity (U-87 MG [8]): Active
- Activity (U-87 MG [9]): inactive
- Activity (U-87 MG [10]): Active
- Activity (HUVEC [11]): inactive

SMILES: COc1ccc2[nH]c3c(c2c1)CN(C(=O)Cc1ccncc1)CCC3
- IC50 [12]: > 20 µM

SMILES: COc1ccc2[nH]c3c(c2c1)CN(C(=O)Cc1ccccc1)CCC3
- IC50 [12]: > 20 µM

SMILES: COc1ccc2[nH]c3c(c2c1)CNCCC3
- IC50 [12]: > 20 µM

SMILES: COc1ccc2[nH]c3c(c2c1)CN(C(=O)CN1CCOCC1)CCC3
- IC50 [12]: > 20 µM

SMILES: COc1ccc2[nH]c3c(c2c1)CN(C(=O)CC(C)C)CCC3
- IC50 [12]: > 20 µM
